The results in this text go back to patent publication US9029337B2, “Modulation of factor 7 expression” (Isis Pharmaceuticals, Inc., priority 2007, dated 2015).

The test system of series [1] is human Factor 7 mRNA. Description: Antisense inhibition of human Factor 7 mRNA in HepB3 cells, 50 nM antisense oligonucleotide, lipofectin. It counts as cell-based. As to conditions: lipofectin, approximately 24 hours. An outline of the steps:
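Percent inhibition of Factor 7 mRNA, relative to untreated control, comes from real-time RT-PCR with RIBOGREEN normalization, using primer probe set RTS 2927 in some runs. RNA was taken roughly 24 h after lipofectin delivery of 50 nM oligonucleotide into HepB3 cells.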

The subject of series [2] is murine Factor 7 mRNA. Description: Antisense inhibition of murine Factor 7 mRNA in liver of BALB/c mice, dose response. It is filed as in vivo, mouse. As for the experimental part: BALB/c mice were treated with ISIS 403102 ([…], target site 11336, incorporated herein as SEQ ID NO: 161). BALB/c mice were injected subcutaneously with 5 mg/kg, 10 mg/kg, 25 mg/kg, or 50 mg/kg of ISIS 403102 twice a week for 3 weeks. A control group of mice was injected subcutaneously with PBS twice a week for 3 weeks. After the treatment period, whole liver was collected for RNA and protein analysis, and plasma was collected for clotting analysis (PT/aPTT).
RNA was extracted from liver tissue for real-time RT-PCR analysis of Factor 7. […] Results are presented as percent inhibition of Factor 7, relative to the control.

The test system of series [3] is murine Factor 7 mRNA. The series is described as follows: Single dose pharmacokinetic assay: liver Factor 7 mRNA in BALB/c mice. It counts as in vivo, mouse. The conditions noted are these: single dose 50 mg/kg; for % Inhibition: liver Factor 7 mRNA, BALB/c mice. The procedure:
The half-life and duration of action of ISIS 403102 in mice was evaluated. A group of 27 BALB/c mice was injected with 50 mg/kg of ISIS 403102. Three mice from the group were sacrificed at days 1, 2, 3, 4, 6, 8, 12, 24, and 56 after the single dose of ISIS 403102 was administered. A control group of 3 mice was injected with a single dose of PBS, and mice in this group were sacrificed on day 1. Mice in all groups were sacrificed by cervical dislocation following anesthesia with 150 mg/kg ketamine mixed with 10 mg/kg xylazine administered by intraperitoneal injection. Liver was harvested for RNA analysis and plasma was collected for clotting analysis (PT and aPTT).
RNA was extracted from liver tissue for real-time RT-PCR analysis of Factor 7. Results are presented as percent inhibition of Factor 7, relative to PBS control. […] Results are presented as percent inhibition of Factor 7, relative to control.

Where [4] appears, read: Table 1, 50 nM, relative to untreated control cells.
[5] abbreviates: 50 nM antisense oligonucleotide, Factor 7 mRNA by real-time RT-PCR (RTS 2927), relative to untreated control.

Strand notation (5' to 3'): a small letter for the sugar, then the base; units joined by * are phosphorothioate-linked, units joined directly phosphodiester-linked; [ ] holds rarer units or linkages, { } end groups; capitals alone tell only the bases. e = 2'-O-(2-methoxyethyl) (MOE); [5mC] = 5-methylcytosine; d = 2'-deoxy (DNA)

With “407935 (antisense eA*eT*eG*e[5mC]*eA*dT*dG*dG*dT*dG*dA*dT*dG*d[5mC]*dT*eT*e[5mC]*eT*eG*eA) [compound 407935]”, the % Inhibition (as a rule, the percentage by which the read-out fell short of the control) in series [1] (setting [4]) came to 94%; in series [1] (Table 13 (microwalk), 50 nM), 79%; in series [1] (setting [5]), 72%.
For “407939 (antisense eT*eG*e[5mC]*eA*eG*d[5mC]*d[5mC]*d[5mC]*dG*dG*d[5mC]*dA*d[5mC]*d[5mC]*d[5mC]*eA*eG*e[5mC]*eG*eA) [compound 407939]”, the “% Inhibition” value in series [1] (setting [4]) is reported as 93%; in series [1] (setting [5]), 76%.
As for “CCATAGAACAGCTTCACAGG (sugars from the 5' end e5 d10 e5, backbone and methylation of C not given here) [ISIS 403102]”, the “% inhibition of murine Factor 7 mRNA” value in series [2] (5 mg/kg subcutaneously twice a week for 3 weeks, relative to PBS control) is listed as 64%; in series [2] (10 mg/kg subcutaneously twice a week for 3 weeks) it was 84%; in series [2] (25 mg/kg subcutaneously twice a week for 3 weeks), 96%; in series [2] (50 mg/kg subcutaneously twice a week for 3 weeks), 99%. In series [2] (5-50 mg/kg twice a week for 3 weeks), the “reduction of murine Factor 7 mRNA over the PBS control” value is listed as “dose-dependent reduction of murine Factor 7”. Also, the “% Inhibition” value was determined as 61% in series [3] (day 1, relative to PBS control); 87% in series [3] (day 2, relative to PBS control); 92% in series [3] (day 3, relative to PBS control); 92% in series [3] (day 4, relative to PBS control); 86% in series [3] (day 6, relative to PBS control); 80% in series [3] (day 8, relative to PBS control). Further, the “% Inhibition” value in series [3] (day 12, relative to PBS control) came out at 72%; in series [3] (day 24, relative to PBS control), 11%; in series [3] (day 56, relative to PBS control), 0%. Besides, in series [3], the duration of action result is “at least 24 days”. The peak effect in series [3] was roughly 4 days. In addition, the “inhibition of Factor 7 mRNA” value was found to be 92% in series [3] (day 4) and 11% in series [3] (day 24). Also, in series [3] (day 56), the “Factor 7 mRNA levels” value is reported as “equal to that of the PBS control”.
